# Where two headings read alike, the source gives them in different places.
# Columns and labels:
# [1] = test system: H292 cells; set-up: method as in Gaillard et al., 2019; settings: H292, 24 h at 37°C, MTT assay; ref Gaillard et al., 2019; cited from earlier work
# [2] = set-up: method as in Gaillard et al., 2019; settings: lipoplexes with pCMV-Gluc, N/P 3, 1 molar equivalent of DOPE; ref Gaillard et al., 2019; cited from earlier work
# [3] = set-up: method as in Gaillard et al., 2019; settings: ref Gaillard et al., 2019, cited from earlier work
# [4] = set-up: method as in Gaillard et al., 2019; settings: pyrene fluorescence; ref Gaillard et al., 2019; cited from earlier work
# [5] = test system: sheep RBC; settings: sheep RBC, 37°C, ref Gaillard et al., 2019, cited from earlier work
# [6] = test system: 16HBE cells; set-up: method as in Gaillard et al., 2019; settings: 24 h at 37°C, MTT assay, ref Gaillard et al., 2019; cited from earlier work
# [7] = test system: A549 cells; assay: Antiproliferative effect of pUNO1-hTRAIL vs pCMV-Gluc lipoplexes, MTT, A549; format: cell-based, human; settings: N/P 3, 1 eq. DOPE, pDNA 0.3 and 0.4 μg/well
# Protocol: Cells were treated with lipoplexes prepared from pro-APLs ME12, PE12, and EE12, with increasing dose of pDNA (0.1–0.4 μg per well). The gold standard gene delivery reagent Lipofectamine® 2000 was assayed in parallel for comparison purpose. In order to distinguish the intrinsic cytotoxic effect of the in situ generated APLs from that resulting from TRAIL expression, pCMV-Gluc was assayed in parallel to pUNO1-hTRAIL. Using pCMV-Gluc, the observed cytotoxicity was assumed to result only from the APL antiproliferative activity, whereas results obtained with pUNO1-hTRAIL are a combination of TRAIL activity and APL antiproliferative effect. […] Though the temptation is to take it as an indicator that functional TRAIL was produced, the difference found was not always statistically significant. The activity profile of the three pro-APLs varied according to the cell line. […]
# Figure 8 Antiproliferative effect of lipoplexes prepared from ME12 (A), PE12 (B), EE12 (C), and the two DNA plasmids pCMV-Gluc (light bars) and pUNO1-hTRAIL (dark bars), on the three cell lines. […] Lipofectamine®-based lipoplexes (0.1 μg plasmid/well) were prepared according to the optimized experimental conditions determined following the supplier's instructions. Cell viability was measured by the MTT assay. Basal mitochondrial activity measured in untreated cells is set at 100%. […]
# [8] = test system: A549 cells; set-up: method as in Gaillard et al., 2019; settings: A549, 24 h at 37°C, MTT assay; ref Gaillard et al., 2019; cited from earlier work
smiles,measurement,setting,value
CCCCCCCC/C=C\CCCCCCCCCCCCOP(=O)(OCCC[N+](C)(C)C)OCOC(=O)CCCCCCCCCCC (stereo not shown) [EE12],IC50,[1],125 ± 26 µM
same,Particle size of lipoplexes,[2],141 ± 5 nm
same,H120 (hydrolysis rate after a 120-h incubation period),[3]; pH 4.5,2%
same,H120 (hydrolysis rate after a 120-h incubation period),[3]; pH 7.4,17%
same,CMC (APLs) / CAC (pro-APLs),[4],0.6 ± 0.2 µM
same,HA200 (hemolytic activity at 200 μM),[5]; 1 h,< 1%
same,HA200 (hemolytic activity at 200 μM),[5]; 24 h,18.6 ± 1.5%
same,IC50,[6],144 ± 66 µM
same,TRAIL-induced cell death,[7],15-17%
same,IC50,[8],151 ± 42 µM

# From paper PMC7566913, “Dual Gene Delivery Reagents From Antiproliferative Alkylphospholipids for Combined Antitumor Therapy” (Frontiers in Chemistry, 2020)
